# Experimental data: patent US20110086759A1, “CHEMICAL COMPOUNDS” (SYNGENTA CROP PROTECTION, INC., priority 2007, published 2011)
# Assays:
# Assay type in all cases: in vivo
# [1] = tested on: Amaranthus retoflexus (AMARE); assay: Post-emergence biological efficacy, glasshouse pot test; details: Amaranthus retroflexus, 312 h; post-emergence, 1,000 g/ha, evaluated after 13 days (100=total damage; 0=no damage); read-out: Percentage damage caused to weed species, AMARE
# Summary of the method: (§1)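 Pot-grown weeds were sprayed 8 days after sowing with test compound in acetone/water (50:50) with 0.5% Tween 20 at 1000 or 250 g/ha. Glasshouse at 24/16° C day/night, 14 h light, 65% humidity. Damage scored 0-100 (100 = total damage) after 13 days.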
# [2] = tested on: Alopecurus myosuroides (ALOMY); assay: as above; details: 312 h, post-emergence, 1,000 g/ha, evaluated after 13 days (100=total damage; 0=no damage), read-out: Percentage damage caused to weed species, ALOMY
# Summary of the method: as §1
# [3] = tested on: Echinochloa crus-galli (ECHCG); assay: as above; details: 312 h, post-emergence, 1,000 g/ha, evaluated after 13 days (100=total damage; 0=no damage), read-out: Percentage damage caused to weed species, ECHCG
# Summary of the method: as §1
# Solanum nigrum (SOLNI) [4] = assay: as above; details: 312 h, post-emergence, 1,000 g/ha, evaluated after 13 days (100=total damage; 0=no damage), read-out: Percentage damage caused to weed species, SOLNI
# Summary of the method: as §1
# [5] = tested on: Ipomea hederaceae (IPOHE); assay: as above; details: Ipomoea hederacea, 312 h; post-emergence, 1,000 g/ha, evaluated after 13 days (100=total damage; 0=no damage); read-out: Percentage damage caused to weed species, IPOHE
# Summary of the method: as §1
# Setaria faberi (SETFA) [6] = assay: as above; details: 312 h, post-emergence, 1,000 g/ha, evaluated after 13 days (100=total damage; 0=no damage), read-out: Percentage damage caused to weed species, SETFA
# Summary of the method: as §1
# [7] = tested on: Amaranthus retoflexus (AMARE); assay: Pre-emergence biological efficacy, glasshouse pot test; details: Amaranthus retroflexus, 312 h; pre-emergence, 1,000 g/ha, evaluated after 13 days (100=total damage; 0=no damage); read-out: Percentage damage AMARE
# Summary of the method: (§2)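 One day after sowing in standard soil, pots were sprayed with compound in acetone/water (50:50) with 0.5% Tween 20, at 1000 or 250 g/ha. Plants grew at 24/16° C day/night, 14 h light, 65% humidity. Damage was scored after 13 days (0 = none, 100 = total).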
# [8] = tested on: Alopecurus myosuroides (ALOMY); assay: as above; details: 312 h, pre-emergence, 1,000 g/ha, evaluated after 13 days (100=total damage; 0=no damage), read-out: Percentage damage ALOMY
# Summary of the method: as §2
# [9] = tested on: Echinochloa crus-galli (ECHCG); assay: as above; details: 312 h, pre-emergence, 1,000 g/ha, evaluated after 13 days (100=total damage; 0=no damage), read-out: Percentage damage ECHCG
# Summary of the method: as §2
# Solanum nigrum (SOLNI) [10] = assay: as above; details: 312 h, pre-emergence, 1,000 g/ha, evaluated after 13 days (100=total damage; 0=no damage), read-out: Percentage damage SOLNI
# Summary of the method: as §2
# [11] = tested on: Ipomea hederaceae (IPOHE); assay: as above; details: Ipomoea hederacea, 312 h; pre-emergence, 1,000 g/ha, evaluated after 13 days (100=total damage; 0=no damage); read-out: Percentage damage IPOHE
# Summary of the method: as §2
# Setaria faberi (SETFA) [12] = assay: as above; details: 312 h, pre-emergence, 1,000 g/ha, evaluated after 13 days (100=total damage; 0=no damage), read-out: Percentage damage SETFA
# Summary of the method: as §2
SMILES,pest or weed control at 1000 g/ha [1] [%],pest or weed control at 1000 g/ha [2] [%],pest or weed control at 1000 g/ha [3] [%],pest or weed control at 1000 g/ha (Solanum nigrum (SOLNI) [4]) [%],pest or weed control at 1000 g/ha [5] [%],pest or weed control at 1000 g/ha (Setaria faberi (SETFA) [6]) [%],pest or weed control at 1000 g/ha [7] [%],pest or weed control at 1000 g/ha [8] [%],pest or weed control at 1000 g/ha [9] [%],pest or weed control at 1000 g/ha (Solanum nigrum (SOLNI) [10]) [%],pest or weed control at 1000 g/ha [11] [%],pest or weed control at 1000 g/ha (Setaria faberi (SETFA) [12]) [%]
"COC(=O)c1nc(C2CC2)nc(NC2(/C=C/c3cccc(Cl)c3Cl)CC2)c1Cl [Compound 4-29, 5-Chloro-2-cyclopropyl-4-{1-[2-(2,3-dichloro-phenyl)ethenyl]-cyclopropylamino}-6-methoxycarbonyl-pyrimidine]",90,10,30,100,100,60,30,10,0,30,70,10
"COC(=O)c1nc(C2CC2)nc(NC2(/C=C/c3cccc(Cl)c3)CC2)c1Cl [Compound 4-30, 5-Chloro-4-{1-[2-(3-chlorophenyl)-etenyl]-cyclopropylamino}-2-cyclopropyl-6-methoxycarbonyl-pyrimidine]",100,10,30,70,100,60,20,0,0,0,40,10
"COC(=O)c1nc(C2CC2)nc(NC2(/C=C/c3ccc(F)cc3F)CC2)c1Cl [Compound 4-31, 5-Chloro-2-cyclopropyl-4-{1-[2-(2,4-difluoro-phenyl)-ethenyl]-cyclopropylamino}-6-methoxy-carbonylpyrimidine]",100,10,30,90,80,80,80,0,0,20,70,0
"COC(=O)c1nc(C2CC2)nc(NC2CCC2)c1Cl [Compound 4-32, 5-Chloro-4-cyclobutylamino-2-cyclopropyl-6-methoxycarbonyl-pyrimidine]",100,50,70,90,100,90,80,50,50,80,80,80
"COC(=O)c1nc(C2CC2)nc(NC2CCCC2)c1Cl [Compound 4-33, 5-Chloro-4-cyclopentylamino-2-cyclopropyl-6-methoxycarbonyl-pyrimidine]",80,30,60,70,70,70,50,0,20,20,50,10
"COC(=O)c1nc(C2CC2)nc(NC2CCCC2O)c1Cl (stereo not drawn) [Compound 4-34, 5-Chloro-2-cyclopropyl-4-(2-hydroxycyclopentylamino)-6-methoxycarbonyl-pyrimidine]",100,20,60,80,60,60,100,30,20,80,90,50
"COC(=O)c1nc(C2CC2)nc(NC2CCCCC2)c1Cl [Compound 4-35, 5-Chloro-4-cyclohexylamino-2-cyclopropyl-6-methoxycarbonyl-pyrimidine]",30,30,0,40,60,20,0,0,0,0,0,0
"COC(=O)c1nc(C2CC2)nc(Nc2ccccc2)c1Cl [Compound 4-39, 5-Chloro-2-cyclopropyl-6-methoxycarbonyl-4-phenylamino-pyrimidine]",100,50,70,80,70,60,60,0,20,50,80,0
"COC(=O)c1nc(C2CC2)nc(Nc2ccc(Cl)c(Cl)c2)c1Cl [Compound 4-42, 5-Chloro-2-cyclopropyl-4-(3,4-dichlorophenyl-amino)-6-methoxycarbonyl-pyrimidine]",50,10,10,50,60,0,30,10,20,0,0,10
"COC(=O)c1nc(C2CC2)nc(NCC2CC2)c1Cl [Compound 4-43, 5-Chloro-2-cyclopropyl-4-cyclopropylmethyl-amino-6-methoxycarbonyl-pyrimidine]",100,60,70,90,100,100,90,70,70,90,80,70
"COC(=O)c1nc(C2CC2)nc(NCC2CCCCC2)c1Cl [Compound 4-49, 5-Chloro-4-cyclohexylmethyl-amino-2-cyclo-propyl-6-methoxy-carbonylpyrimidine]",100,10,40,70,70,40,10,0,0,30,40,0
